Laboratory results from ChEMBL document CHEMBL4842328, “A cyclic peptide inhibitor of the SARS-CoV-2 main protease” (Eur J Med Chem, 2021).
Activity calls are given as the source filed them. No cut-off for these calls is given here. Numbered stars: 1 amine (or outer) side, 2 acyl side, 3 side chain; on linkers, the order of the positions; unused ones are H or OH. Square brackets hold non-standard residues; d marks the D form. Peptide text beside a SMILES is read from it. * marks the point of attachment. X2 = O=C(Cc1ccc(CCN[*:1])cc1)[*:2]; X1 = NC(=O)Cc1ccc(CCN*)cc1

Legend:
[1] = Inhibition of SARS-CoV-2 main protease using K(Dabcy1)-TSAVLQSGFRKM-E-Edans-NH2 as substrate preincubated with enzyme for 30 mins followed by substrate addition by FRET assay; parameters: species or system Severe acute respiratory syndrome coronavirus 2
[2] = test system: Severe acute respiratory syndrome coronavirus 2; assay: Inhibition of SARS-CoV-2 main protease using K(Dabcy1)-TSAVLQSGFRKM-E-Edans-NH2 as substrate at <=750 uM preincubated with enzyme for 30 mins followed by substrate addition by FRET assay; details: dose microM <=750, time 30.0 min
[3] = Stability of the compound assessed as SARS-CoV-2 main protease-mediated compound cleavage at 187.5 uM measured after 4 hrs by LC/MS analysis; assay type: ADME; details: severe acute respiratory syndrome coronavirus 2, 4 h
HEK293 = assay: Cytotoxicity against human HEK293 assessed as reduction in cell viability upto 256 uM after 72 hrs by LDH assay; assay type: cell-based; details: hek293, 72 h

| Compound | IC50 [1] | inhibition [2] | Stabilty [3] | Activity (HEK293) |
| --- | --- | --- | --- | --- |
| CC(=O)N[C@@H](Cc1ccccc1)C(=O)N[C@@H](CCC(N)=O)C(=O)N[C@@H](CO)C(=O)N[C@@H](CCCCN)C(=O)NCCc1ccc(CC(N)=O)cc1 (Ac-FQSK-X1) | > 1.5 mM | inactive | – | – |
| NCCCC[C@@H]1NC(=O)[C@H](CO)NC(=O)[C@H](CCC(N)=O)NC(=O)[C@H](Cc2ccccc2)NC(=O)Cc2ccc(cc2)CCNC1=O.O=C(O)C(F)(F)F (cyclo(FQSK[X2])) | – | – | Stable | Non-Toxic |
| NCCCC[C@@H]1NC(=O)[C@H](CO)NC(=O)[C@H](CCC(N)=O)NC(=O)[C@@H](Cc2ccccc2)NC(=O)Cc2ccc(cc2)CCNC1=O (cyclo([dF]QSK[X2])) | > 1.5 mM | – | – | – |
